Test results published in ChEMBL document CHEMBL1145270 (Bioorg Med Chem Lett, 2005).

Experiments:
[1] = target: T1, Alpha-2C adrenergic receptor (Homo sapiens, UniProt P18825); assay: In vitro binding affinity measured by displacement of [3H]rauwolscine from alpha-2c adrenergic receptor expressed in CHO cells in presence of phentolamine; type: cell-based
T1 sequence (P18825 whole entry): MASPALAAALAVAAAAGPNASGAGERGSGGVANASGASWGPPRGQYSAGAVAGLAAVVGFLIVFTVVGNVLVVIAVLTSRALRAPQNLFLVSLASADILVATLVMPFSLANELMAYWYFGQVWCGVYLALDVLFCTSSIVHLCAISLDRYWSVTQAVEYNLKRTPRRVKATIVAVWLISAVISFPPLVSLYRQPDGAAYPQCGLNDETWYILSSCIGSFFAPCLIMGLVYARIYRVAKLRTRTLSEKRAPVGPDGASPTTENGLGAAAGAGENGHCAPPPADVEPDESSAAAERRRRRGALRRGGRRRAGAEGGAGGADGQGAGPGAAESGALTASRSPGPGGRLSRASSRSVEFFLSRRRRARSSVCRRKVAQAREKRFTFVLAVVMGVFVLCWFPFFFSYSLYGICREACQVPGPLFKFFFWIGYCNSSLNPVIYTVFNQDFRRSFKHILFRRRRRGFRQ

[2] = target: T2, Alpha-2A adrenergic receptor (Homo sapiens, UniProt P08913); assay: In vitro binding affinity towards alpha-2a adrenergic receptor
T2 sequence (P08913 whole entry): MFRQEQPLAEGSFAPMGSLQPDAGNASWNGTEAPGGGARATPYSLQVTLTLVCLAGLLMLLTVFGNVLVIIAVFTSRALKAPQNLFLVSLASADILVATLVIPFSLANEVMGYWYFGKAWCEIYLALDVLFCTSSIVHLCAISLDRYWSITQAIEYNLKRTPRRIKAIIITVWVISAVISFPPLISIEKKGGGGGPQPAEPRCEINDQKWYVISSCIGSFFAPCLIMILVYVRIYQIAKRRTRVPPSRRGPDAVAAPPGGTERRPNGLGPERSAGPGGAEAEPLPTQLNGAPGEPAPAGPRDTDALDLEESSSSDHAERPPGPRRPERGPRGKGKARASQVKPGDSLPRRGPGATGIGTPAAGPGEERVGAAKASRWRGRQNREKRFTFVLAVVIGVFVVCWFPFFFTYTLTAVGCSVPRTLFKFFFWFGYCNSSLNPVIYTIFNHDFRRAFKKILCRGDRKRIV

[3] = target: T3, Alpha-2B adrenergic receptor (Homo sapiens, UniProt P18089); assay: In vitro binding affinity towards alpha-2b adrenergic receptor
T3 sequence (P18089 whole entry): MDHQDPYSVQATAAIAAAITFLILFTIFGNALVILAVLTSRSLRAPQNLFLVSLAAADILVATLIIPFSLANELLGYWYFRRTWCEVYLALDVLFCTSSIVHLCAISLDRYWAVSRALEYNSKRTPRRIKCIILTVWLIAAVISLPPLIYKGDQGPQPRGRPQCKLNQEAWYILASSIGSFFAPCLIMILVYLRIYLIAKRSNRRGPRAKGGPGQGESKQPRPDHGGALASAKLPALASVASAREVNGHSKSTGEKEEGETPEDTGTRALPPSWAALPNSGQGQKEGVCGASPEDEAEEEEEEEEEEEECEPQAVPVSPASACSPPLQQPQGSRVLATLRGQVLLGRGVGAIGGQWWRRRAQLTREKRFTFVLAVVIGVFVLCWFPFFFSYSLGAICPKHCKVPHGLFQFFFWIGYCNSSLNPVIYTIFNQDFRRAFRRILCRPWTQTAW

SMILES	Ki [1] [nM]	Ki [2] [nM]	Ki [3] [nM]
NCCCNC(=O)[C@@H]1C2C[C@H]3c4[nH]c5ccccc5c4CCN3C[C@@H]2CC[C@@H]1O (stereo partly specified)	32		
O=C(O)CCCNC(=O)[C@@H]1C2C[C@H]3c4[nH]c5ccccc5c4CCN3C[C@@H]2CC[C@@H]1O (stereo partly specified)	3		
O=C(O)[C@@H]1C2C[C@H]3c4[nH]c5ccccc5c4CCN3C[C@@H]2CC[C@@H]1O (stereo partly specified)	19		
CC(C)(C)OC(=O)NCCCNC(=O)[C@@H]1C2C[C@H]3c4[nH]c5ccccc5c4CCN3C[C@@H]2CC[C@@H]1O (stereo partly specified)	2.8		
COC(=O)CNC(=O)[C@@H]1C2C[C@H]3c4[nH]c5ccccc5c4CCN3C[C@@H]2CC[C@@H]1O (stereo partly specified)	8		
O=C(CCCNC(=O)[C@@H]1C2C[C@H]3c4[nH]c5ccccc5c4CCN3C[C@@H]2CC[C@@H]1O)OCc1ccccc1 (stereo partly specified)	0.65	29	1300
O=C(NCCCNC(=O)[C@@H]1C2C[C@H]3c4[nH]c5ccccc5c4CCN3C[C@@H]2CC[C@@H]1O)[C@H]1[C@@H]2C[C@@H]3c4[nH]c5ccccc5c4CCN3C[C@H]2CC[C@H]1O (stereo partly specified)	8.5		
O=C(NCCCNC(=O)[C@@H]1C2C[C@H]3c4[nH]c5ccccc5c4CCN3C[C@@H]2CC[C@@H]1O)OCc1ccccc1 (stereo partly specified)	1.1		
COC(=O)CNC(=O)CNC(=O)[C@@H]1C2C[C@H]3c4[nH]c5ccccc5c4CCN3C[C@@H]2CC[C@@H]1O (stereo partly specified)	5.2		
